# What was measured:
# Assay type in all cases: in vivo
# [1] = tested on: Jimson Weed; test: Selective post-emergent greenhouse test, Jimson Weed; details: post-emergence, 336 h, 2 weeks; for pest or weed control at 358.672 g/ha: 0.32 lbs/acre; for pest or weed control at 706.135 g/ha: 0.63 lbs/acre
# Text: (§1) So as to illustrate clearly the phytotoxic properties of the various active ingredients of the present invention, a group of controlled greenhouse experiments is described below.
# (§2) Various species of plants, both broadleaf weeds and valuable crops, were planted in beds of good agricultural soil in a greenhouse. After the plants had emerged and grown to a height of about 2-6 inches, a portion of the plants were sprayed with an aqueous mixture, made by mixing a selected active ingredient and emulsifier or dispersant with water to provide solution containing 250 or 125 ppm active ingredient, employing sufficient amounts of the treating composition to provide low post emergent application rates of about 0.63 or 0.32 pounds per acre. Other portions of the plants were left untreated to serve as controls. In each test the active ingredient was a 3-methylethyl-1H-2,1,3-benzothiadiazin-4(3H)-one-2,2-dioxide having a substituent in the one position according to the invention.
# (§3) After a period of 2 weeks the selective effect of the test ingredient on the plants was evaluated by a comparison with the control group of plants.
# [2] = tested on: Velvet Leaf; test: Selective post-emergent greenhouse test, Velvet Leaf; details: for pest or weed control at 358.672 g/ha / pest or weed control at 706.135 g/ha: post-emergence, 336 h, 2 weeks; for pest or weed control at 358.672 g/ha: 0.32 lbs/acre; for pest or weed control at 706.135 g/ha: 0.63 lbs/acre
# Text: as §1, §2, §3
# [3] = tested on: Soybean; test: Selective post-emergent greenhouse test, Soybean (crop injury); details: Glycine max, post-emergence, 336 h, 2 weeks, read-out: % Control Soybean; for plant injury at 358.672 g/ha: 0.32 lbs/acre; for plant injury at 706.135 g/ha: 0.63 lbs/acre
# Text: as §1, §2, §3
# [4] = tested on: Cotton; test: Selective post-emergent greenhouse test, Cotton (crop injury); details: for plant injury at 358.672 g/ha / plant injury at 706.135 g/ha: Gossypium hirsutum, post-emergence, 336 h, 2 weeks, crop, read-out: % Control Cotton; for plant injury at 358.672 g/ha: 0.32 lbs/acre; for plant injury at 706.135 g/ha: 0.63 lbs/acre
# Text: as §1, §2, §3
compound,measurement,setting,value
COC(=O)CCC(=O)N1c2ccccc2C(=O)N(C(C)C)S1(=O)=O [drawing 13],pest or weed control at 358.672 g/ha,[1],100%
same,pest or weed control at 706.135 g/ha,[1],100%
same,pest or weed control at 358.672 g/ha,[2],70%
same,pest or weed control at 706.135 g/ha,[2],100%
same,plant injury at 358.672 g/ha,[3],0%
same,plant injury at 706.135 g/ha,[3],0%
same,plant injury at 358.672 g/ha,[4]; post-emergent,0%
same,plant injury at 706.135 g/ha,[4]; post-emergent,60%
CC(C)N1C(=O)c2ccccc2N(C(=O)C2CCCCC2)S1(=O)=O,pest or weed control at 358.672 g/ha,[1],100%
same,pest or weed control at 706.135 g/ha,[1],100%
same,pest or weed control at 358.672 g/ha,[2],0%
same,pest or weed control at 706.135 g/ha,[2],100%
same,plant injury at 358.672 g/ha,[3],0%
same,plant injury at 706.135 g/ha,[3],0%
same,plant injury at 358.672 g/ha,[4]; post-emergent,0%
same,plant injury at 706.135 g/ha,[4]; post-emergent,100%
"CCC(=O)N1c2ccccc2C(=O)N(C(C)C)S1(=O)=O [COC2 H5, 1H-2,1,3-Benzothiadiazin-4(3H)-one: 3-(1-methylethyl)-1-(1-oxopropyl)-; 2,2-dioxide]",pest or weed control at 358.672 g/ha,[2],100%
same,pest or weed control at 706.135 g/ha,[2],100%
same,plant injury at 358.672 g/ha,[3],0%
same,plant injury at 706.135 g/ha,[3],0%
same,plant injury at 358.672 g/ha,[4]; post-emergent,0%
same,plant injury at 706.135 g/ha,[4]; post-emergent,100%
"CC(C)N1C(=O)c2ccccc2N(C(=O)CC(C)(C)C)S1(=O)=O [COCH2 C(CH3)3, 1H-2,1,3-Benzothiadiazin-4(3H)-one: 1-(3,3-dimethyl-1-oxobutyl)-3-(1-methylethyl)-; 2,2-dioxide]",pest or weed control at 358.672 g/ha,[1],90%
same,pest or weed control at 706.135 g/ha,[1],100%
same,pest or weed control at 358.672 g/ha,[2],100%
same,pest or weed control at 706.135 g/ha,[2],100%
same,plant injury at 358.672 g/ha,[3],0%
same,plant injury at 706.135 g/ha,[3],0%
same,plant injury at 358.672 g/ha,[4]; post-emergent,0%
same,plant injury at 706.135 g/ha,[4]; post-emergent,0%
"CC(C)COC(=O)N1c2ccccc2C(=O)N(C(C)C)S1(=O)=O [CO2 CH2 CH(CH3)2, 1H-2,1,3-Benzothiadiazine-1-carboxylic Acid: 3,4-Dihydro-3-(1-methylethyl)-4-oxo-, 2-Methylpropyl Ester, 2,2-Dioxide]",pest or weed control at 358.672 g/ha,[1],100%
same,pest or weed control at 706.135 g/ha,[1],100%
same,pest or weed control at 358.672 g/ha,[2],100%
same,pest or weed control at 706.135 g/ha,[2],100%
same,plant injury at 358.672 g/ha,[3],10%
same,plant injury at 706.135 g/ha,[3],10%
same,plant injury at 358.672 g/ha,[4]; post-emergent,0%
same,plant injury at 706.135 g/ha,[4]; post-emergent,0%
CC(C)N1C(=O)c2ccccc2N(C(=O)OCCCl)S1(=O)=O [CO2 CH2 CH2 Cl],pest or weed control at 358.672 g/ha,[1],80%
same,pest or weed control at 706.135 g/ha,[1],100%
same,pest or weed control at 358.672 g/ha,[2],95%
same,pest or weed control at 706.135 g/ha,[2],100%
same,plant injury at 358.672 g/ha,[3],0%
same,plant injury at 706.135 g/ha,[3],0%
same,plant injury at 358.672 g/ha,[4]; post-emergent,10%
same,plant injury at 706.135 g/ha,[4]; post-emergent,10%
CCOC(=O)N1c2ccccc2C(=O)N(C(C)C)S1(=O)=O [CO2 CH2 CH3],pest or weed control at 358.672 g/ha,[1],100%
same,pest or weed control at 706.135 g/ha,[1],100%
same,pest or weed control at 358.672 g/ha,[2],70%
same,pest or weed control at 706.135 g/ha,[2],100%
same,plant injury at 358.672 g/ha,[3],0%
same,plant injury at 706.135 g/ha,[3],0%
same,plant injury at 358.672 g/ha,[4]; post-emergent,10%
same,plant injury at 706.135 g/ha,[4]; post-emergent,30%
CCC(C)OC(=O)N1c2ccccc2C(=O)N(C(C)C)S1(=O)=O (centres unmarked),pest or weed control at 358.672 g/ha,[1],100%
same,pest or weed control at 706.135 g/ha,[1],100%
same,pest or weed control at 358.672 g/ha,[2],100%
same,pest or weed control at 706.135 g/ha,[2],100%
same,plant injury at 358.672 g/ha,[3],0%
same,plant injury at 706.135 g/ha,[3],0%
same,plant injury at 358.672 g/ha,[4]; post-emergent,30%
same,plant injury at 706.135 g/ha,[4]; post-emergent,30%
"CC(C)N1C(=O)c2ccccc2NS1(=O)=O [3-methylethyl-1H-2,1,3-benzothiadiazin-4(3H)-one-2,2-dioixde, reference compound]",control of velvet leaf,"[2]; comparison test, about 0.32 pounds per acre",control of velvet leaf was obtained
same,damage to cotton at dosage rates at which velvet leaf is controlled,"[4]; comparison compound, in general",cotton suffers substantial damage
same,control of cotton,"[4]; comparison test, about 0.32 pounds per acre, post-emergent",90%

# — US4208514A, “4(3H)-Oxobenzo-2,1,3-thiadiazine-2,2-dioxides” (The Dow Chemical Company, priority 1976, dated 1980)
